Measured values published in patent publication US10975051B2, “Phenylsulfonamido-benzofuran derivatives and uses thereof in the treatment of proliferative diseases” (Memorial Sloan-Kettering Cancer Center, priority 2015, dated 2021).

Legend:
[1] = system: DMS53, SW1417, and H82 cell lines; assay: apoptotic induction in DMS53, SW1417 and H82 cell lines (selectively addicted to BCL-2, BCL-XL and MCL-1); format: cell-based; conditions: H82 versus DMS53 and SW1417, FIG. 2B
[2] = system: MCL-1-addicted cancer cell-line H82; assay: apoptosis induction in MCL-1-addicted cancer cell line H82; format: cell-based; conditions: H82 cells, FIG. 1B
[3] = system: MCL-1-addicted cancer cell-line, H23; assay: apoptosis induction in MCL-1-addicted cancer cell line H23; format: cell-based; conditions: H23 cells; for induction of apoptosis: FIG. 1B
BCL-XL = BCL-XL (Homo sapiens, UniProt Q07817); conditions: Oltersdorf et al., Nature, 2005; cited from earlier work
MCL-1 = MCL-1 (Homo sapiens, UniProt Q07820); conditions: background statement; cited from earlier work
BCL-2 = BCL-2 (Homo sapiens, UniProt P10415); conditions: Oltersdorf et al., Nature, 2005; cited from earlier work
BCL-W = target: T1, BCL-W (Homo sapiens, UniProt Q92843); conditions: Oltersdorf et al., Nature, 2005; cited from earlier work
T1 sequence (Q92843 1-193): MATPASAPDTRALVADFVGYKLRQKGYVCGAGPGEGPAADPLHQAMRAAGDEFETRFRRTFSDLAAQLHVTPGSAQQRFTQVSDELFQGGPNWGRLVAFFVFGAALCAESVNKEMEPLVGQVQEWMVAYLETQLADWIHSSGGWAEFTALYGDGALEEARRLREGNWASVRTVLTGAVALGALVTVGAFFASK

Chain of MCL-1 (Q07820 whole entry, species assumed): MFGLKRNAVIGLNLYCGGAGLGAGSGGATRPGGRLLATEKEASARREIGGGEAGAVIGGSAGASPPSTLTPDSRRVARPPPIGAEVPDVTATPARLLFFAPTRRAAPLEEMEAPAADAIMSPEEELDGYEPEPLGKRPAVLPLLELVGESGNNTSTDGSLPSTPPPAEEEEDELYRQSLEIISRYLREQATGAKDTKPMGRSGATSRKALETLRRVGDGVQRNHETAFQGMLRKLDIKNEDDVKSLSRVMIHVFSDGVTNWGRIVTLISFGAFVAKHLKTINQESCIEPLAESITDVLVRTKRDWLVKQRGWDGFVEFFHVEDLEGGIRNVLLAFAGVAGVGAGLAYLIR
Chain of BCL-2 (P10415 whole entry, species assumed): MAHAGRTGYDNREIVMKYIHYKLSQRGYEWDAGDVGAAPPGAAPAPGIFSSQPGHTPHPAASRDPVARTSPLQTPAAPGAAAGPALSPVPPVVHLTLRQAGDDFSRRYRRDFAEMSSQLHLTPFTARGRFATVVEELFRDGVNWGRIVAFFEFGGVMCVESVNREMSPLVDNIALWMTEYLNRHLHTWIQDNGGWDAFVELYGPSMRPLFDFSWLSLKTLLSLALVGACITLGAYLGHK
Chain of BCL-XL (Q07817 whole entry, species assumed): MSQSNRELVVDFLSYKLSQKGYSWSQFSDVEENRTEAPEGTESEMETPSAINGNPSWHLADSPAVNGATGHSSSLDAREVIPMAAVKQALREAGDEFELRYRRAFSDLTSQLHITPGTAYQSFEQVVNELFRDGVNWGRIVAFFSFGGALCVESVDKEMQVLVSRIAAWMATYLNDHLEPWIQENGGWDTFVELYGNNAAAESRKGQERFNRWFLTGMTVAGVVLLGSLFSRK

| EC50 ([3]; Homo sapiens, NCI-H23, FIG. 1A, read-out: EC50 of inducing apoptosis) [nM] | SMILES | selectivity of apoptosis induction in MCL-1 addicted cancer cell line over BCL-2 or BCL-XL addicted cancer cell lines [1] | induction of apoptosis ([2]; 1 µM of compound) | induction of apoptosis ([2]; 1 μM of compound) | induction of apoptosis ([3]; 1 µM of compound) | induction of apoptosis ([3]; 1 μM of compound) | binding affinity to BCL-XL (BCL-XL) | inhibition of MCL-1 (MCL-1) | binding affinity to BCL-2 (BCL-2) | binding affinity to BCL-W (BCL-W) |
| --- | --- | --- | --- | --- | --- | --- | --- | --- | --- | --- |
| 600 | CCOC(=O)c1c(C)oc2cc(Br)c(NS(=O)(=O)c3ccc(OC)cc3)cc12 [Compound 1] | selectively induce apoptosis | robust apoptosis | robust apoptosis | robust apoptosis | robust apoptosis | – | – | – | – |
| – | CC1(C)CCC(c2ccc(Cl)cc2)=C(CN2CCN(c3ccc(C(=O)NS(=O)(=O)c4ccc(N[C@H](CCN5CCOCC5)CSc5ccccc5)c(S(=O)(=O)C(F)(F)F)c4)cc3)CC2)C1 [ABT-263] | – | – | – | – | – | high affinity | do not inhibit | high affinity | high affinity |
| – | CN(C)CC[C@H](CSc1ccccc1)Nc1ccc(S(=O)(=O)NC(=O)c2ccc(N3CCN(Cc4ccccc4-c4ccc(Cl)cc4)CC3)cc2)cc1[N+](=O)[O-] [ABT-737, (R)-4-(4-((4′-chloro-[1,1′-biphenyl]-2-yl)methyl)piperazin-1-yl)-N-((4-((−4-(dimethylamino)-1-(phenylthio)butan-2-yl)amino)-3-nitrophenyl)sulfonyl)benzamide] | – | – | – | – | – | high affinity | do not inhibit | high affinity | high affinity |
